Measurements: ChEMBL document CHEMBL1133233, “The design and synthesis of thrombin inhibitors: the introduction of in vivo efficacy and oral bioavailability into benzthiazolylalanine inhibitors” (Bioorg Med Chem Lett, 2000)
Converted amounts (≈) assume the structure as drawn.

What was measured:
[1] = Effectiveness to inhibit coagulation in plasma measured as activated partial thromboplastin time (APTT); format: functional
Prothrombin = Prothrombin (Homo sapiens, UniProt P00734); test: Evaluated for the binding affinity against thrombin
[2] = Oral bioavailability in rat; format: ADME, organism-based; details: in vivo
[3] = Bioavailability in rat (intraduodenal administration); format: ADME, organism-based; details: in vivo
[4] = Aqueous solubility at pH 7; format: physicochemical
Rattus norvegicus [5] = test: Inhibition of fibrin deposition was determined after 2 hr on arterial thrombosis in the rat at 20 mg/kg oral administration using an acute model of injury induced thrombus formation; format: functional
Rattus norvegicus [6] = test: Inhibition of platelet deposition was determined on arterial thrombosis in the rat at 20 mg/kg oral administration using an acute model of injury induced thrombus formation; format: functional; details: read-out: Inhibition
Rattus norvegicus [7] = test: Inhibition of fibrin deposition was determined after 1 hr on arterial thrombosis in the rat at 20 mg/kg oral administration using an acute model of injury induced thrombus formation; format: functional
Rattus norvegicus [8] = test: Inhibition of platelet deposition was determined on arterial thrombosis in the rat at 10 mg/kg oral administration using an acute model of injury induced thrombus formation; format: functional
[9] = Inhibitory activity against TF/VIIa
Coagulation factor X = Coagulation factor X (Homo sapiens, UniProt P00742); test: Inhibitory activity against Coagulation factor X
[10] = Aqueous solubility at pH 2; format: physicochemical
Serine protease 1 = Serine protease 1 (Homo sapiens, UniProt P07477); test: Inhibitory activity against trypsin
Plasminogen = Plasminogen (Homo sapiens, UniProt P00747); test: Inhibitory activity against plasmin
Plasminogen, sequence (P00747 97-580 limits assumed): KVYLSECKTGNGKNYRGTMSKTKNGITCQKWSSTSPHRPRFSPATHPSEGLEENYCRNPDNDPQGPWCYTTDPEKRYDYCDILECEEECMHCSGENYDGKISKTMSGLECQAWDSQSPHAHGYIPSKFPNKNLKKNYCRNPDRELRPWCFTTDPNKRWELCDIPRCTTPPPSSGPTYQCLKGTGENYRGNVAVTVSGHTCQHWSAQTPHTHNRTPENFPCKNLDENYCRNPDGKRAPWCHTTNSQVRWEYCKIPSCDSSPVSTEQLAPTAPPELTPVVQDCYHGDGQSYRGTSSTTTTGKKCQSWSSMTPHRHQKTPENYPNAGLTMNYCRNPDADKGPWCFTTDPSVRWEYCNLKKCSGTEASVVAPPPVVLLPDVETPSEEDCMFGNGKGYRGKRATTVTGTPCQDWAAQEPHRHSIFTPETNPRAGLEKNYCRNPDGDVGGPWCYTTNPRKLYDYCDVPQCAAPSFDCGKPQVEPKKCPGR
Plasminogen, sequence (P00747 581-810 limits assumed): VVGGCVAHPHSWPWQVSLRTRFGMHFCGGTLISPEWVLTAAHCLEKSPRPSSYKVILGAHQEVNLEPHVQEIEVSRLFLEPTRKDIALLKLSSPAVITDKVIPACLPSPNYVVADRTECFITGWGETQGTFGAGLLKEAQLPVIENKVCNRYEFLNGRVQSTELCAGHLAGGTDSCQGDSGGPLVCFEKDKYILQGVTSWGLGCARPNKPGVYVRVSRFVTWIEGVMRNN

Serine protease 1, sequence (P07477 whole entry): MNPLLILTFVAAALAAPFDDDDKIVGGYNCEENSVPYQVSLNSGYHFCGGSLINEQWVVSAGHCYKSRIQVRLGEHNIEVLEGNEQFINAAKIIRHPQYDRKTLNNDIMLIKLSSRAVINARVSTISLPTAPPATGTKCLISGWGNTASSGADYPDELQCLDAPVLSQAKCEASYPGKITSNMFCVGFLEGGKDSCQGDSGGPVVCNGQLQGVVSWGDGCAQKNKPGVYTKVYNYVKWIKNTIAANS
Coagulation factor X, sequence (P00742 41-179 limits assumed): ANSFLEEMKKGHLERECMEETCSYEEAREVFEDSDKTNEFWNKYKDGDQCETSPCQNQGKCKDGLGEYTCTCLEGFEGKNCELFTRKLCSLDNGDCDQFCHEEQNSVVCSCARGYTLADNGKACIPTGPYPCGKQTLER
Coagulation factor X, sequence (P00742 235-488 limits assumed): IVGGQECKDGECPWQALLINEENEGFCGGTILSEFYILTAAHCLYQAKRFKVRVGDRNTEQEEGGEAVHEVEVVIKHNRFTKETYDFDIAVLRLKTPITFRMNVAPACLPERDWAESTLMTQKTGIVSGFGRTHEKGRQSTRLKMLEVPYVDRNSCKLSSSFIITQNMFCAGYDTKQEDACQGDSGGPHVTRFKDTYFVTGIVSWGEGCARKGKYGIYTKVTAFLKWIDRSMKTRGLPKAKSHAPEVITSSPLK

Row | Compound | Ki (Prothrombin) [µM] | APTT [1] [µM] | further results
1 | CC1(C)CNc2c(cc(CC(=O)O)cc2S(=O)(=O)N[C@@H](Cc2nc3ccccc3s2)C(=O)N2CCC(CCF)CC2)C1 | 0.5 | 14.9 | 
2 | CC1(C)CNc2c(cc(CO)cc2S(=O)(=O)N[C@@H](Cc2nc3ccccc3s2)C(=O)N2CCC(CCF)CC2)C1 | 0.064 | 16.8 | 
3 | CCOC(=O)c1cc2c(c(S(=O)(=O)N[C@@H](Cc3nc4ccccc4s3)C(=O)N3CCC(CCF)CC3)c1)NCC(C)(C)C2 |  | 105.4 | 
4 | CC1(C)CNc2c(cc(CCCO)cc2S(=O)(=O)N[C@@H](Cc2nc3ccccc3s2)C(=O)N2CCC(CCF)CC2)C1 | 0.119 | 19 | 
5 | CC1(C)CNc2c(cc(CCCC(=O)O)cc2S(=O)(=O)N[C@@H](Cc2nc3ccccc3s2)C(=O)N2CCC(CCF)CC2)C1 | 0.094 | 16.6 | 
6 | COCCOCOCc1cc2c(c(S(=O)(=O)N[C@@H](Cc3nc4ccccc4s3)C(=O)N3CCC(CCF)CC3)c1)NCC(C)(C)C2 | 0.125 | 18 | 
7 | CC1(C)CNc2c(cc(CCC(=O)O)cc2S(=O)(=O)N[C@@H](Cc2nc3ccccc3s2)C(=O)N2CCC(CCF)CC2)C1 | 0.082 | 10.7 | bioavailability [2]: 0%; bioavailability [3]: 50%; solubility [4]: 5.15 µg/mL (≈ 8.16 µM)
8 | CNC(=O)OCc1cc2c(c(S(=O)(=O)N[C@@H](Cc3nc4ccccc4s3)C(=O)N3CCC(CCF)CC3)c1)NCC(C)(C)C2 | 0.077 | 20.7 | 
9 | CC1(C)CNc2c(cc(CCC(=O)N3CCN(CC(=O)N4CCOCC4)CC3)cc2S(=O)(=O)N[C@@H](Cc2nc3ccccc3s2)C(=O)N2CCC(CCF)CC2)C1 [listing 1 of 2 here] |  |  | inhibition in vivo at 20 mg/kg (Rattus norvegicus [5]): 43%; inhibition in vivo at 20 mg/kg (Rattus norvegicus [6]): 60%; inhibition in vivo at 20 mg/kg (Rattus norvegicus [7]): 48%; inhibition in vivo at 10 mg/kg (Rattus norvegicus [8]): 60%
10 | CC1(C)CNc2c(cccc2S(=O)(=O)N[C@@H](Cc2nc3ccccc3s2)C(=O)N2CCC(CCF)CC2)C1 |  | 26.5 | 
11 | CC1(C)CNc2c(cc(C(=O)O)cc2S(=O)(=O)N[C@@H](Cc2nc3ccccc3s2)C(=O)N2CCC(CCF)CC2)C1 | 0.359 | 13 | 

The remaining molecules from weak to strong by Ki (Prothrombin), led by results:

Row | Ki (Prothrombin) [µM] | Compound | APTT [1] [µM] | further results
12 | 0.057 | CC1(C)CNc2c(cc(CCC(=O)N3CCN(CC(=O)N4CCOCC4)CC3)cc2S(=O)(=O)N[C@@H](Cc2nc3ccccc3s2)C(=O)N2CCC(CCF)CC2)C1 [listing 2 of 2 here] | 7 | Ki [9]: 11600 µM; Ki (Coagulation factor X): ≥ 200 µM; solubility [10]: 15000 µg/mL (≈ 18200 µM); Ki (Serine protease 1): 153 µM; bioavailability [2]: 28%; Ki (Plasminogen): 212 µM; bioavailability [3]: 38%; solubility [4]: 130 µg/mL (≈ 157 µM)
13 | 0.047 | CC1(C)CNc2c(cc(CCNC(N)=O)cc2S(=O)(=O)N[C@@H](Cc2nc3ccccc3s2)C(=O)N2CCC(CCF)CC2)C1 | 10.2 | 
14 | 0.039 | CC1(C)CNc2c(cc(CCO)cc2S(=O)(=O)N[C@@H](Cc2nc3ccccc3s2)C(=O)N2CCC(CCF)CC2)C1 | 13.7 | 
15 | 0.034 | CN(C)C(=O)CCc1cc2c(c(S(=O)(=O)N[C@@H](Cc3nc4ccccc4s3)C(=O)N3CCC(CCF)CC3)c1)NCC(C)(C)C2 | 9.2 | 
16 | 0.034 | CC(=O)N1CCN(C(=O)CCc2cc3c(c(S(=O)(=O)N[C@@H](Cc4nc5ccccc5s4)C(=O)N4CCC(CCF)CC4)c2)NCC(C)(C)C3)CC1 | 7.5 | 
17 | 0.027 | CC1(C)CNc2c(cc(CCC(=O)N3CCN(Cc4ccncc4)CC3)cc2S(=O)(=O)N[C@@H](Cc2nc3ccccc3s2)C(=O)N2CCC(CCF)CC2)C1 | 9.7 | 
18 | 0.006 | CC1(C)CNc2c(cccc2S(=O)(=O)N[C@@H](CCCN=C(N)N)C(=O)N2CCC(CCF)CC2)C1 [CGH-728] | 2.1 | 
